# Tested on: Artemia salina
# Experiment: Toxicity in Artemia salina assessed as inhibition of egg hatching after 48 hrs
# Assay type: organism-based
row,Structure (SMILES),IC50 [µg/mL]
1,C[C@H]1O[C@H](Oc2c(-c3cc(O)c(O)c(O)c3)oc3cc(O)cc(O)c3c2=O)[C@@H](OC(=O)c2cc(O)c(O)c(O)c2)[C@@H](O)[C@@H]1O,75
2,C[C@H]1O[C@H](Oc2c(-c3cc(O)c(O)c(O)c3)oc3cc(O)cc(O)c3c2=O)[C@@H](O)[C@@H](OC(=O)c2cc(O)c(O)c(O)c2)[C@@H]1O,64
3,COc1cc(O)c2c(=O)c(O[C@H]3O[C@H](C)[C@@H](O)[C@H](O)[C@@H]3OC(=O)c3cc(O)c(O)c(O)c3)c(-c3cc(O)c(O)c(O)c3)oc2c1,89
4,COc1cc(O)c2c(=O)c(O[C@H]3O[C@H](C)[C@@H](O)[C@H](OC(=O)c4cc(O)c(O)c(O)c4)[C@@H]3O)c(-c3cc(O)c(O)c(O)c3)oc2c1,50

# Reference: ChEMBL document CHEMBL1142619, “Three new flavonol galloylglycosides from leaves of Acacia confusa” (J Nat Prod, 2000)
